Assay results from PubChem BioAssay (NCI).
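Method: 48-hour compound exposure of cells in 96-well plates, five concentrations, linear interpolation of endpoints. Here, GI50 denotes the concentration required for 50% inhibition of growth. TGI: total growth inhibition.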

Legend:
Experiment in all cases: NCI anticancer screen, dose series, 48 h
786-0 renal = tested on: 786-0 renal
A498 renal = tested on: A498 renal
ACHN renal = tested on: ACHN renal
BT-549 breast = tested on: BT-549 breast
CAKI-1 renal = tested on: CAKI-1 renal
CCRF-CEM leukemia = tested on: CCRF-CEM leukemia
COLO 205 colon = tested on: COLO 205 colon
DU-145 prostate = tested on: DU-145 prostate
EKVX NSCLC = tested on: EKVX NSCLC
HCC-2998 colon = tested on: HCC-2998 colon
HCT-116 colon = tested on: HCT-116 colon
HCT-15 colon = tested on: HCT-15 colon
HL-60(TB) leukemia = tested on: HL-60(TB) leukemia
HOP-62 NSCLC = tested on: HOP-62 NSCLC
HOP-92 NSCLC = tested on: HOP-92 NSCLC
HS 578T breast = tested on: HS 578T breast
HT29 colon = tested on: HT29 colon
IGROV1 ovarian = tested on: IGROV1 ovarian
K-562 leukemia = tested on: K-562 leukemia
KM12 colon = tested on: KM12 colon
LOX IMVI melanoma = tested on: LOX IMVI melanoma
M14 melanoma = tested on: M14 melanoma
MALME-3M melanoma = tested on: MALME-3M melanoma
MCF7 breast = tested on: MCF7 breast
MDA-MB-231 breast = tested on: MDA-MB-231 breast
MDA-MB-435 = tested on: MDA-MB-435
MOLT-4 leukemia = tested on: MOLT-4 leukemia
NCI-H226 lung = tested on: NCI-H226 lung
NCI-H23 lung = tested on: NCI-H23 lung
NCI-H460 lung = tested on: NCI-H460 lung
NCI-H522 lung = tested on: NCI-H522 lung
NCI/ADR-RES ovarian = tested on: NCI/ADR-RES ovarian
OVCAR-3 ovarian = tested on: OVCAR-3 ovarian
OVCAR-4 ovarian = tested on: OVCAR-4 ovarian
OVCAR-5 ovarian = tested on: OVCAR-5 ovarian
OVCAR-8 ovarian = tested on: OVCAR-8 ovarian
PC-3 prostate = tested on: PC-3 prostate
RPMI-8226 leukemia = tested on: RPMI-8226 leukemia
RXF 393 renal = tested on: RXF 393 renal
SF-268 CNS = tested on: SF-268 CNS
SF-295 CNS = tested on: SF-295 CNS
SF-539 CNS = tested on: SF-539 CNS
SK-MEL-2 melanoma = tested on: SK-MEL-2 melanoma
SK-MEL-28 melanoma = tested on: SK-MEL-28 melanoma
SK-OV-3 ovarian = tested on: SK-OV-3 ovarian
SN12C renal = tested on: SN12C renal
SNB-19 CNS = tested on: SNB-19 CNS
SNB-75 CNS = tested on: SNB-75 CNS
SR leukemia = tested on: SR leukemia
SW-620 colon = tested on: SW-620 colon
T-47D breast = tested on: T-47D breast
TK-10 renal = tested on: TK-10 renal
U251 CNS = tested on: U251 CNS
UACC-257 melanoma = tested on: UACC-257 melanoma
UACC-62 melanoma = tested on: UACC-62 melanoma
UO-31 renal = tested on: UO-31 renal

## COc1cccc2c1C(=O)c1c(O)c3c(c(O)c1C2=O)C[C@@](O)(/C(CO)=N/NC(=O)CCCCCN1C(=O)C=CC1=O)C[C@@H]3O[C@H]1C[C@H](N)[C@H](O)[C@H](C)O1
786-0 renal
  GI50: 386 nM
  TGI: 9.21 µM
A498 renal
  GI50: 361 nM
  TGI: 2150 nM
ACHN renal
  GI50: 717 nM
  TGI: > 51.5 µM
BT-549 breast
  GI50: 1210 nM
  TGI: 8.96 µM
CAKI-1 renal
  GI50: 3.6 µM
  TGI: 56.4 µM
CCRF-CEM leukemia
  GI50: 334 nM
  TGI: > 100 µM
COLO 205 colon
  GI50: 800 nM
  TGI: 10.2 µM
DU-145 prostate
  GI50: 554 nM
  TGI: 38.6 µM
EKVX NSCLC
  GI50: 3.1 µM
  TGI: > 75.9 µM
HCC-2998 colon
  GI50: 1500 nM
  TGI: > 58.1 µM
HCT-116 colon
  GI50: 410 nM
  TGI: > 100 µM
HCT-15 colon
  GI50: 7.94 µM
  TGI: > 100 µM
HL-60(TB) leukemia
  GI50: 800 nM
  TGI: 15.5 µM
HOP-62 NSCLC
  GI50: 674 nM
  TGI: 10.5 µM
HOP-92 NSCLC
  GI50: 270 nM
  TGI: 7.01 µM
HS 578T breast
  GI50: 1690 nM
  TGI: 9.64 µM
HT29 colon
  GI50: 1370 nM
  TGI: 13.2 µM
IGROV1 ovarian
  GI50: 1040 nM
  TGI: > 100 µM
K-562 leukemia
  GI50: 825 nM
  TGI: > 52.5 µM
KM12 colon
  GI50: 1980 nM
  TGI: > 100 µM
LOX IMVI melanoma
  GI50: 301 nM
  TGI: 3.95 µM
M14 melanoma
  GI50: 1060 nM
  TGI: 11 µM
MALME-3M melanoma
  GI50: 395 nM
  TGI: 2230 nM
MCF7 breast
  GI50: 147 nM
  TGI: > 100 µM
MDA-MB-231 breast
  GI50: 1960 nM
  TGI: 44 µM
MDA-MB-435
  GI50: 2030 nM
  TGI: 13.4 µM
MOLT-4 leukemia
  GI50: 392 nM
  TGI: 28.3 µM
NCI-H226 lung
  GI50: 560 nM
  TGI: 3.37 µM
NCI-H23 lung
  GI50: 927 nM
  TGI: 5.98 µM
NCI-H460 lung
  GI50: 88.9 nM
  TGI: 1950 nM
NCI-H522 lung
  GI50: 560 nM
  TGI: 4.21 µM
NCI/ADR-RES ovarian
  GI50: > 100 µM
  TGI: > 100 µM
OVCAR-3 ovarian
  GI50: 1890 nM
  TGI: > 64.4 µM
OVCAR-4 ovarian
  GI50: 2250 nM
  TGI: 22 µM
OVCAR-5 ovarian
  GI50: 4.04 µM
  TGI: > 100 µM
OVCAR-8 ovarian
  GI50: 1140 nM
  TGI: 97.4 µM
PC-3 prostate
  GI50: 1640 nM
  TGI: 19.5 µM
RPMI-8226 leukemia
  GI50: 320 nM
  TGI: > 28.2 µM
RXF 393 renal
  GI50: 984 nM
  TGI: 3.85 µM
SF-268 CNS
  GI50: 648 nM
  TGI: 12.4 µM
SF-295 CNS
  GI50: 404 nM
  TGI: 5.56 µM
SF-539 CNS
  GI50: 734 nM
  TGI: 7.82 µM
SK-MEL-2 melanoma
  GI50: 1680 nM
  TGI: 5.33 µM
SK-MEL-28 melanoma
  GI50: 1610 nM
  TGI: 5.67 µM
SK-OV-3 ovarian
  GI50: 1630 nM
  TGI: 36.8 µM
SN12C renal
  GI50: 446 nM
  TGI: > 100 µM
SNB-19 CNS
  GI50: 465 nM
  TGI: 11.4 µM
SNB-75 CNS
  GI50: 368 nM
  TGI: 2990 nM
SR leukemia
  GI50: 109 nM
  TGI: > 100 µM
SW-620 colon
  GI50: 357 nM
  TGI: > 49 µM
T-47D breast
  GI50: 490 nM
  TGI: 8.41 µM
TK-10 renal
  GI50: 1680 nM
  TGI: > 27.4 µM
U251 CNS
  GI50: 325 nM
  TGI: 15.8 µM
UACC-257 melanoma
  GI50: 1060 nM
  TGI: 4.32 µM
UACC-62 melanoma
  GI50: 621 nM
  TGI: 3 µM
UO-31 renal
  GI50: 3.47 µM
  TGI: 27.9 µM
